Tests used:
Experiment in all cases: KINOMEscan binding assay
Conditions in all cases: read-out: % Ctrl @ 10000 nM
PIP5K2C = PIP5K2C (Homo sapiens, UniProt Q8TBX8)
RIPK1 = RIPK1 (Homo sapiens, UniProt Q13546)
PFPK5 P. falciparum = PFPK5 P. falciparum (Plasmodium falciparum, UniProt P61075)
MEK2 = MEK2 (Homo sapiens, UniProt P36507)
SBK1 = SBK1 (Homo sapiens, UniProt Q52WX2)
[1] = biological target: ABL1 (F317L) phosphorylated (Homo sapiens, UniProt P00519, F317L)
GSK3B = GSK3B (Homo sapiens, UniProt P49841)
NLK = NLK (Homo sapiens, UniProt Q9UBE8)
KIT-autoinhibited = KIT-autoinhibited (Homo sapiens, UniProt P10721)
TAOK2 = TAOK2 (Homo sapiens, UniProt Q9UL54)
PRKCD = PRKCD (Homo sapiens, UniProt Q05655)
S6K1 = S6K1 (Homo sapiens, UniProt P23443)
STK35 = STK35 (Homo sapiens, UniProt Q8TDR2)
ERK8 = ERK8 (Homo sapiens, UniProt Q8TD08)
IKK-epsilon = IKK-epsilon (Homo sapiens, UniProt Q14164)
ALK (L1196M) = ALK (L1196M) (Homo sapiens, UniProt Q9UM73, L1196M)
CAMK2D = CAMK2D (Homo sapiens, UniProt Q13557)
BRSK2 = BRSK2 (Homo sapiens, UniProt Q8IWQ3)
EGFR (G719S) = EGFR (G719S) (Homo sapiens, UniProt P00533, G719S)
BMPR1B = BMPR1B (Homo sapiens, UniProt O00238)
[2] = biological target: EGFR (L747-E749del, A750P) (Homo sapiens, UniProt P00533, A750P/DEL747-749)
MST1 = MST1 (Homo sapiens, UniProt Q13043)
MARK3 = MARK3 (Homo sapiens, UniProt P27448)
CDK4-cyclinD1 = CDK4-cyclinD1 (Homo sapiens, UniProt P11802)
MERTK = MERTK (Homo sapiens, UniProt Q12866)
LKB1 = biological target: T1, LKB1 (Homo sapiens, UniProt Q15831)
T1 construct: T7 phage fusion (most assays) or DNA label after HEK293 expression; purchased DiscoveRx (KINOMEscan, LeadHunter Discovery services); host or cells: T7 phage in E. coli (BL21-derived) or HEK293

CSK = CSK (Homo sapiens, UniProt P41240)
TYK2 JH1domain-catalytic = TYK2 JH1domain-catalytic (Homo sapiens, UniProt P29597)
MST3 = MST3 (Homo sapiens, UniProt Q9Y6E0)
[3] = biological target: ABL1 (H396P) phosphorylated (Homo sapiens, UniProt P00519, H396P)
WEE1 = WEE1 (Homo sapiens, UniProt P30291)
YANK2 = biological target: T2, YANK2 (Homo sapiens, UniProt Q9NY57)
T2 construct: purchased DiscoveRx (KINOMEscan, LeadHunter Discovery services)

TSSK1B = TSSK1B (Homo sapiens, UniProt Q9BXA7)
RIPK5 = RIPK5 (Homo sapiens, UniProt Q6XUX3)
EPHB2 = EPHB2 (Homo sapiens, UniProt P29323)
CSNK1A1 = CSNK1A1 (Homo sapiens, UniProt P48729)
LTK = biological target: T3, LTK (Homo sapiens, UniProt P29376)
T3 construct: T7 phage fusion (most assays) or DNA label after HEK293 expression; purchased DiscoveRx (KINOMEscan, LeadHunter Discovery services); host or cells: T7 phage in E. coli (BL21-derived) or HEK293

PIP5K1A = PIP5K1A (Homo sapiens, UniProt Q99755)
RET = RET (Homo sapiens, UniProt P07949)
[4] = biological target: EGFR (L747-S752del, P753S) (Homo sapiens, UniProt P00533, DEL747-752/P753S)

Chain of CSNK1A1 (P48729 whole entry): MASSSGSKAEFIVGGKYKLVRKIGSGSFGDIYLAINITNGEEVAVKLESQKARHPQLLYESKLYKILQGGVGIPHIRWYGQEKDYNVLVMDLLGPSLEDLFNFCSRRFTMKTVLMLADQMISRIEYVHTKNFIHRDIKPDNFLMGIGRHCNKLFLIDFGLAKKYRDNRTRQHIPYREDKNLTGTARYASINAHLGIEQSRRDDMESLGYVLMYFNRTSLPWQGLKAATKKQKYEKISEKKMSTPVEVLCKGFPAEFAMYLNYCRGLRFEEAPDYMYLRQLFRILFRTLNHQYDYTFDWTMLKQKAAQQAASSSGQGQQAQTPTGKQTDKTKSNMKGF
Chain of MEK2 (P36507 whole entry): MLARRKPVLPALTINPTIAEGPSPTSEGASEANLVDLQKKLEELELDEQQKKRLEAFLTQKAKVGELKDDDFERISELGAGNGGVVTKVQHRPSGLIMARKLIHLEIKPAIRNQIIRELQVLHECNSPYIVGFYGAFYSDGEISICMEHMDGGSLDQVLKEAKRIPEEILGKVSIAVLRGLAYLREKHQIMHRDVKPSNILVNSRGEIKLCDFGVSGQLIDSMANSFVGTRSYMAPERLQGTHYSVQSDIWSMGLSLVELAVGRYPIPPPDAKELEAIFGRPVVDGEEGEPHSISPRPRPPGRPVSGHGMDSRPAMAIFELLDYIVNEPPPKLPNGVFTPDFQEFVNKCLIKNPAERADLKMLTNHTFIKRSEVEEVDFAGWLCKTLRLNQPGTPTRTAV
Chain of KIT-autoinhibited (P10721 546-976 limits assumed): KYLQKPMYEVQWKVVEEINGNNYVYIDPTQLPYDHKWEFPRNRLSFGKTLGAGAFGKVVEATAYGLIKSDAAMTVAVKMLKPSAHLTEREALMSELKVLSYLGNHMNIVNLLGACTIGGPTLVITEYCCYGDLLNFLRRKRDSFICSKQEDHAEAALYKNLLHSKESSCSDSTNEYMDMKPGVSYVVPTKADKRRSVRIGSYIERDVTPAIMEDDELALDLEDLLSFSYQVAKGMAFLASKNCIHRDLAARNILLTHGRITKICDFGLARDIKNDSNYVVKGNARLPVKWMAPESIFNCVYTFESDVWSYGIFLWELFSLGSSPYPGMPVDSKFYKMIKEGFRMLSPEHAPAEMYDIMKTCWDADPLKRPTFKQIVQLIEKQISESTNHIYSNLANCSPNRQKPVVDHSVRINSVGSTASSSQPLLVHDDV
Chain of MERTK (Q12866 21-999): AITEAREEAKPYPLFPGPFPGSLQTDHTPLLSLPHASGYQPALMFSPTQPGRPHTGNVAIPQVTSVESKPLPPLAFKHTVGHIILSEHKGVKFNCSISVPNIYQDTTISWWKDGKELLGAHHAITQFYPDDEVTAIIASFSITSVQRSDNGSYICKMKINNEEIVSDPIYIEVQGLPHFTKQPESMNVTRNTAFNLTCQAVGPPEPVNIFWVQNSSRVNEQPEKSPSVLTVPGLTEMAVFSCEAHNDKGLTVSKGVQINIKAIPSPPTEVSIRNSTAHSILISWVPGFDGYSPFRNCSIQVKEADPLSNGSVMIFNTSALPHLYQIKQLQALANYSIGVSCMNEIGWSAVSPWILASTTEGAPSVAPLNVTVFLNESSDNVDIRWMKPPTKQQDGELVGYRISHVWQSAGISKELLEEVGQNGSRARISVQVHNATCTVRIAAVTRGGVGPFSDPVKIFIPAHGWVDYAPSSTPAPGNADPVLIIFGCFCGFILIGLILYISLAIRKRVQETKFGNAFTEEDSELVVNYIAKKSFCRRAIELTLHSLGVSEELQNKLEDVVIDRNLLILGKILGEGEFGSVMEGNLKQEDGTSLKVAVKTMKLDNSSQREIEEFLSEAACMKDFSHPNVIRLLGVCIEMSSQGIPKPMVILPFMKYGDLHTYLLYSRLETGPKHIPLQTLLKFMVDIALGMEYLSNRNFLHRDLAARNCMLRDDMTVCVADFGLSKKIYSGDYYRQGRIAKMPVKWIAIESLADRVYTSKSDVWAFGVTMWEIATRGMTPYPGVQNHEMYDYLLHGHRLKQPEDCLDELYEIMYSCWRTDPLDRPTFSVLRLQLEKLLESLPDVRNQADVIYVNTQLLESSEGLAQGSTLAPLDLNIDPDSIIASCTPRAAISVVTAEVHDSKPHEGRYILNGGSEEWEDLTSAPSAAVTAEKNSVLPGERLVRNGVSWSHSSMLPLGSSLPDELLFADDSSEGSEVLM
Chain of MST3 (Q9Y6E0 whole entry): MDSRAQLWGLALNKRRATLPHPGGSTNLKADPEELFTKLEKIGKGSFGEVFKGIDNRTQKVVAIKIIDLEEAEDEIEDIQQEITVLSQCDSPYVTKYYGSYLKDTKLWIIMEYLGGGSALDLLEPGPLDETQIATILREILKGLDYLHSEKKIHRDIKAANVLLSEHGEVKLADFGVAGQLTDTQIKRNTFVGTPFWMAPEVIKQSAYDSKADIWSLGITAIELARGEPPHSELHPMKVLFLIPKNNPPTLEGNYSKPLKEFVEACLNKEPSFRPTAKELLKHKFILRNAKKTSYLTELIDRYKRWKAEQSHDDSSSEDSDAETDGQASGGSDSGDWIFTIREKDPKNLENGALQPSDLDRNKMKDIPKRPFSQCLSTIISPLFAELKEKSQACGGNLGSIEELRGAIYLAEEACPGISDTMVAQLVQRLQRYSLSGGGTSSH
Chain of EGFR (G719S) (P00533 25-1210 G719S): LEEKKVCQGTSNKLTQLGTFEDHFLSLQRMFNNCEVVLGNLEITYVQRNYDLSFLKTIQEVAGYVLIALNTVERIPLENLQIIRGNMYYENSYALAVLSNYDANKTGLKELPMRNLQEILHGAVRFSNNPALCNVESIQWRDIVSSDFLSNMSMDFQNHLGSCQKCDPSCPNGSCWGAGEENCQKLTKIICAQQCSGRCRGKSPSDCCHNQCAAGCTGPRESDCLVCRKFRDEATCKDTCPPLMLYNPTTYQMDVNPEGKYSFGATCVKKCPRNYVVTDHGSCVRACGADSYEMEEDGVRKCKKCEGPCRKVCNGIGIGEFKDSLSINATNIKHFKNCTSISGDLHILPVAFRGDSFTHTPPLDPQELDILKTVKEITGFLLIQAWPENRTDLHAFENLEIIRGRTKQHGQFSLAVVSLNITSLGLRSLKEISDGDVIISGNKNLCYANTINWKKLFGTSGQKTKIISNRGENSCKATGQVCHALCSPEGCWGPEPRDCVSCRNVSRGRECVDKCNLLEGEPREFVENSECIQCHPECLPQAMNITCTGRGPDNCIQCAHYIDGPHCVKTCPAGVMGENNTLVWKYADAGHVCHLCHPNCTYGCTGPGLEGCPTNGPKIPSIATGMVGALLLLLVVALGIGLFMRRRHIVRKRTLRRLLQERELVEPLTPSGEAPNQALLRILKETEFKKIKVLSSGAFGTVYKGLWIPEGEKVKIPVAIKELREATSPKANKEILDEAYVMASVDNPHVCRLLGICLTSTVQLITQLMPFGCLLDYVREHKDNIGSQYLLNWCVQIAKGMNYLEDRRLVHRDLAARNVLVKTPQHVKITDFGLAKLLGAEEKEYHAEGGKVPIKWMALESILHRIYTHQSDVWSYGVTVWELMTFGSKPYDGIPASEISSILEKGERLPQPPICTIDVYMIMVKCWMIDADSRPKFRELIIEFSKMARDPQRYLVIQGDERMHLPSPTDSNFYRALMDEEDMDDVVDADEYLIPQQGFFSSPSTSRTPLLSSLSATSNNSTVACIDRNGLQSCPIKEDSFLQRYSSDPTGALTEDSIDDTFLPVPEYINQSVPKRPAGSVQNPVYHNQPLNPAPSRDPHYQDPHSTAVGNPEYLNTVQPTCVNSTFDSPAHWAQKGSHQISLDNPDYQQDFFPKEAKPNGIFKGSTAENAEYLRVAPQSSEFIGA
Chain of TAOK2 (Q9UL54 whole entry): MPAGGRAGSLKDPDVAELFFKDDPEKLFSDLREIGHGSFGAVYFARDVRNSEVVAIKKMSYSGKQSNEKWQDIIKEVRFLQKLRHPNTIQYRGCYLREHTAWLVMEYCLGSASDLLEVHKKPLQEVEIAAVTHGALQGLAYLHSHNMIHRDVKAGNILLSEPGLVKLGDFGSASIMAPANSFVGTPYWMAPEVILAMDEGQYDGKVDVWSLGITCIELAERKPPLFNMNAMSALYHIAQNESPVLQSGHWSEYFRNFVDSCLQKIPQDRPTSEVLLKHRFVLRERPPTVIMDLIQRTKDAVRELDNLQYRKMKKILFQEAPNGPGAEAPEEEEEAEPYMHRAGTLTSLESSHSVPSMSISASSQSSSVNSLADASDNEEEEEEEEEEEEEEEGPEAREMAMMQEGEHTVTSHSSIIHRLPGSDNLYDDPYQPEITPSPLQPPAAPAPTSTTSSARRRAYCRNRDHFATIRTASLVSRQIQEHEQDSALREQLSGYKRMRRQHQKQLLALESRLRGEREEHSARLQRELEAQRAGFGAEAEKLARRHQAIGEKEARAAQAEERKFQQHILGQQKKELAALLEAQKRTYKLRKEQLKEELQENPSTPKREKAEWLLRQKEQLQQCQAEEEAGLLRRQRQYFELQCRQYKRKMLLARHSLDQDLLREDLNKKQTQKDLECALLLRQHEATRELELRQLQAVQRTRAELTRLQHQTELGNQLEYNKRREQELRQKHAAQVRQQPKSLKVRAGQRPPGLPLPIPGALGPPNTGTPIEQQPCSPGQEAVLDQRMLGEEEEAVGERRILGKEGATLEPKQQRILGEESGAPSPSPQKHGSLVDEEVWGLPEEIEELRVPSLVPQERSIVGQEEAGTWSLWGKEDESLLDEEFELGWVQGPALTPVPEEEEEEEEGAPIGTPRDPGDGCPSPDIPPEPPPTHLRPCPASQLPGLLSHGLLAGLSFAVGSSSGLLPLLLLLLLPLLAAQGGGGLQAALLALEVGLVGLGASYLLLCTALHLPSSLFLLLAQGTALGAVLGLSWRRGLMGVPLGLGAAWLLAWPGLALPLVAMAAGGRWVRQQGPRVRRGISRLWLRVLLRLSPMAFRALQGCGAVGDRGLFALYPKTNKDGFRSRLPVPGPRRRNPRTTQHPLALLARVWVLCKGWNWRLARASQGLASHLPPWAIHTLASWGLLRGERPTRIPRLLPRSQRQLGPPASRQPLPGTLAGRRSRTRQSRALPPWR

`Nc1ncc(-c2nc3ccccc3o2)c(-c2ccncc2)n1` [Comparative Compound 324, 5-(1,3-benzoxazol-2-yl)-4-(pyridine-4-yl)pyrimidin-2-amine] was tested. Which remaining binding at 10 µM (PIP5K2C) did it give?
Its remaining binding at 10 µM is 72%.

And the remaining binding at 10 µM (RIPK1)?
The remaining binding at 10 µM was 100%.

What about the remaining binding at 10 µM (PFPK5 P. falciparum) of the same compound?
The remaining binding at 10 µM was 100%.

What about the remaining binding at 10 µM (MEK2) of the same compound?
Its remaining binding at 10 µM is 82%.

And the remaining binding at 10 µM (SBK1)?
The remaining binding at 10 µM was 83%.

And the remaining binding at 10 µM [1]?
Its remaining binding at 10 µM is 75%.

What about the remaining binding at 10 µM (GSK3B) of the same compound?
Its remaining binding at 10 µM is 95%.

What about the remaining binding at 10 µM (NLK) of the same compound?
Its remaining binding at 10 µM is 41%.

And the remaining binding at 10 µM (KIT-autoinhibited)?
Its remaining binding at 10 µM is 88%.

What about the remaining binding at 10 µM (TAOK2) of the same compound?
Its remaining binding at 10 µM is 98%.

And the remaining binding at 10 µM (PRKCD)?
Its remaining binding at 10 µM is 86%.

What about the remaining binding at 10 µM (S6K1) of the same compound?
Its remaining binding at 10 µM is 90%.

What about the remaining binding at 10 µM (STK35) of the same compound?
Its remaining binding at 10 µM is 100%.

What about the remaining binding at 10 µM (ERK8) of the same compound?
The remaining binding at 10 µM was 99%.

And the remaining binding at 10 µM (IKK-epsilon)?
Its remaining binding at 10 µM is 82%.

And the remaining binding at 10 µM (ALK (L1196M))?
The remaining binding at 10 µM was 100%.

What about the remaining binding at 10 µM (CAMK2D) of the same compound?
The remaining binding at 10 µM was 99%.

What about the remaining binding at 10 µM (BRSK2) of the same compound?
Its remaining binding at 10 µM is 100%.

What about the remaining binding at 10 µM (EGFR (G719S)) of the same compound?
The remaining binding at 10 µM was 63%.

What about the remaining binding at 10 µM (BMPR1B) of the same compound?
Its remaining binding at 10 µM is 80%.

What about the remaining binding at 10 µM [2] of the same compound?
The remaining binding at 10 µM was 64%.

What about the remaining binding at 10 µM (MST1) of the same compound?
The remaining binding at 10 µM was 92%.

What about the remaining binding at 10 µM (MARK3) of the same compound?
The remaining binding at 10 µM was 100%.

And the remaining binding at 10 µM (CDK4-cyclinD1)?
The remaining binding at 10 µM was 85%.

What about the remaining binding at 10 µM (MERTK) of the same compound?
Its remaining binding at 10 µM is 99%.

And the remaining binding at 10 µM (LKB1)?
The remaining binding at 10 µM was 85%.

And the remaining binding at 10 µM (CSK)?
Its remaining binding at 10 µM is 100%.

What about the remaining binding at 10 µM (TYK2 JH1domain-catalytic) of the same compound?
The remaining binding at 10 µM was 86%.

What about the remaining binding at 10 µM (MST3) of the same compound?
Its remaining binding at 10 µM is 98%.

And the remaining binding at 10 µM [3]?
Its remaining binding at 10 µM is 98%.

And the remaining binding at 10 µM (WEE1)?
The remaining binding at 10 µM was 100%.

What about the remaining binding at 10 µM (YANK2) of the same compound?
Its remaining binding at 10 µM is 70%.

And the remaining binding at 10 µM (TSSK1B)?
The remaining binding at 10 µM was 100%.

And the remaining binding at 10 µM (RIPK5)?
The remaining binding at 10 µM was 96%.

And the remaining binding at 10 µM (EPHB2)?
The remaining binding at 10 µM was 99%.

And the remaining binding at 10 µM (CSNK1A1)?
The remaining binding at 10 µM was 4.2%.

And the remaining binding at 10 µM (LTK)?
The remaining binding at 10 µM was 74%.

And the remaining binding at 10 µM (PIP5K1A)?
The remaining binding at 10 µM was 96%.

What about the remaining binding at 10 µM (RET) of the same compound?
Its remaining binding at 10 µM is 94%.

And the remaining binding at 10 µM [4]?
The remaining binding at 10 µM was 57%.

What does the source list for `CNc1c(C(N)=O)c2ccccn2c1C(=O)c1ccc(F)cc1` [Compound A, 2-methyl-amino-3-[(4-fluorophenyl)carbonyl]indolizine-1-carboxamide]?
remaining binding at 10 µM (PIP5K2C): 79%; remaining binding at 10 µM (RIPK1): 99%; remaining binding at 10 µM (PFPK5 P. falciparum): 100%; remaining binding at 10 µM (MEK2): 24%; remaining binding at 10 µM (SBK1): 77%; remaining binding at 10 µM [1]: 46%; remaining binding at 10 µM (GSK3B): 86%; remaining binding at 10 µM (NLK): 35%; remaining binding at 10 µM (KIT-autoinhibited): 78%; remaining binding at 10 µM (TAOK2): 80%; remaining binding at 10 µM (PRKCD): 93%; remaining binding at 10 µM (S6K1): 82%; remaining binding at 10 µM (STK35): 100%; remaining binding at 10 µM (ERK8): 98%; remaining binding at 10 µM (IKK-epsilon): 74%; remaining binding at 10 µM (ALK (L1196M)): 100%; remaining binding at 10 µM (CAMK2D): 78%; remaining binding at 10 µM (BRSK2): 94%; remaining binding at 10 µM (EGFR (G719S)): 24%; remaining binding at 10 µM (BMPR1B): 81%; remaining binding at 10 µM [2]: 13%; remaining binding at 10 µM (MST1): 84%; remaining binding at 10 µM (MARK3): 88%; remaining binding at 10 µM (CDK4-cyclinD1): 47%; remaining binding at 10 µM (MERTK): 55%; remaining binding at 10 µM (LKB1): 85%; remaining binding at 10 µM (CSK): 91%; remaining binding at 10 µM (TYK2 JH1domain-catalytic): 71%; remaining binding at 10 µM (MST3): 71%; remaining binding at 10 µM [3]: 49%; remaining binding at 10 µM (WEE1): 94%; remaining binding at 10 µM (YANK2): 78%; remaining binding at 10 µM (TSSK1B): 100%; remaining binding at 10 µM (RIPK5): 79%; remaining binding at 10 µM (EPHB2): 82%; remaining binding at 10 µM (CSNK1A1): 0.95%; remaining binding at 10 µM (LTK): 85%; remaining binding at 10 µM (PIP5K1A): 100%; remaining binding at 10 µM (RET): 80%; remaining binding at 10 µM [4]: 11%

Source: patent US10815230B2, “Casein kinase 1 delta inhibitor” (ELECTROPHORETICS LIMITED, priority 2015, dated 2020)
